From patent publication US8530667B2, “Herbicides” (Syngenta Limited, priority 2007, dated 2013)

tested on: Setaria faberi (SETFA); test: Example B pre-emergence herbicidal activity, glasshouse pot test; type: in vivo; conditions: 312 h, Rate 250 g/ha, evaluated after 13 days, read-out: Pre-Emergence Activity SETFA (100=total damage to plant; 0=no damage to plant)
Experimental: (§1) Seeds of a variety of test species were sown in standard soil in pots. After cultivation for one day (pre-emergence) or after 8 days cultivation (post-emergence) under controlled conditions in a glasshouse (at 24/16° C., day/night; 14 hours light; 65% humidity), the plants were sprayed with an aqueous spray solution derived from the formulation of the technical active ingredient in acetone/water (50:50) solution containing 0.5% Tween 20 (polyoxyethelyene sorbitan monolaurate, CAS RN 9005-64-5). The test plants were then grown in a glasshouse under controlled conditions in a glasshouse (at 24/16° C., day/night; 14 hours light; 65% humidity) and watered twice daily. After 13 days for pre and post-emergence, the test was evaluated (100=total damage to plant; 0=no damage to plant). Alopecurus myosuroides (ALOMY), Avena fatua (AVEFA), Setaria faberi (SETFA), Echinochloa crus-galli (ECHCG) and Amaranthus retoflexus (AMARE)

In order of rising pest or weed control at 250 g/ha:
1. Cc1sc(-c2cccs2)nc1C1C(=O)[C@@H]2[C@H](C1=O)[C@H]1CC[C@@H]2O1 (stereo partly drawn) [Compound T32]  40%
2. Cc1sc(-c2ccc(I)cc2)nc1C1C(=O)[C@@H]2[C@H](C1=O)[C@H]1CC[C@@H]2O1 (stereo partly drawn) [Compound T33]  100%
3. CCc1sc(-c2ccc(Br)cc2C)nc1C1C(=O)[C@@H]2[C@H](C1=O)[C@H]1CC[C@@H]2O1 (stereo partly drawn) [Compound T35]  100%

tested on: Avena fatua (AVEFA); test: as above; type: in vivo; conditions: 312 h, Rate 250 g/ha, evaluated after 13 days, read-out: Pre-Emergence Activity AVEFA (100=total damage to plant; 0=no damage to plant)
Experimental: as §1

In order of rising pest or weed control at 250 g/ha:
1. Cc1sc(-c2cccs2)nc1C1C(=O)[C@@H]2[C@H](C1=O)[C@H]1CC[C@@H]2O1 (stereo partly drawn) [Compound T32]  0%
2. Cc1sc(-c2ccc(I)cc2)nc1C1C(=O)[C@@H]2[C@H](C1=O)[C@H]1CC[C@@H]2O1 (stereo partly drawn) [Compound T33]  0%
3. CCc1sc(-c2ccc(Br)cc2C)nc1C1C(=O)[C@@H]2[C@H](C1=O)[C@H]1CC[C@@H]2O1 (stereo partly drawn) [Compound T35]  100%

tested on: Alopecurus myosuroides (ALOMY); test: as above; type: in vivo; conditions: 312 h, Rate 250 g/ha, evaluated after 13 days, read-out: Pre-Emergence Activity ALOMY (100=total damage to plant; 0=no damage to plant)
Experimental: as §1

In order of rising pest or weed control at 250 g/ha:
1. Cc1sc(-c2cccs2)nc1C1C(=O)[C@@H]2[C@H](C1=O)[C@H]1CC[C@@H]2O1 (stereo partly drawn) [Compound T32]  0%
2. Cc1sc(-c2ccc(I)cc2)nc1C1C(=O)[C@@H]2[C@H](C1=O)[C@H]1CC[C@@H]2O1 (stereo partly drawn) [Compound T33]  90%
3. CCc1sc(-c2ccc(Br)cc2C)nc1C1C(=O)[C@@H]2[C@H](C1=O)[C@H]1CC[C@@H]2O1 (stereo partly drawn) [Compound T35]  100%

tested on: Echinochloa crus-galli (ECHCG); test: as above; type: in vivo; conditions: 312 h, Rate 250 g/ha, evaluated after 13 days, read-out: Pre-Emergence Activity ECHCG (100=total damage to plant; 0=no damage to plant)
Experimental: as §1

In order of rising pest or weed control at 250 g/ha:
1. Cc1sc(-c2cccs2)nc1C1C(=O)[C@@H]2[C@H](C1=O)[C@H]1CC[C@@H]2O1 (stereo partly drawn) [Compound T32]  0%
2. Cc1sc(-c2ccc(I)cc2)nc1C1C(=O)[C@@H]2[C@H](C1=O)[C@H]1CC[C@@H]2O1 (stereo partly drawn) [Compound T33]  100%
3. CCc1sc(-c2ccc(Br)cc2C)nc1C1C(=O)[C@@H]2[C@H](C1=O)[C@H]1CC[C@@H]2O1 (stereo partly drawn) [Compound T35]  100%

tested on: Amaranthus retoflexus (AMARE); test: as above; type: in vivo; conditions: Amaranthus retroflexus, 312 h, Rate 250 g/ha, evaluated after 13 days, read-out: Pre-Emergence Activity AMARE (100=total damage to plant; 0=no damage to plant)
Experimental: as §1

In order of rising pest or weed control at 250 g/ha:
1. Cc1sc(-c2cccs2)nc1C1C(=O)[C@@H]2[C@H](C1=O)[C@H]1CC[C@@H]2O1 (stereo partly drawn) [Compound T32]  0%
2. Cc1sc(-c2ccc(I)cc2)nc1C1C(=O)[C@@H]2[C@H](C1=O)[C@H]1CC[C@@H]2O1 (stereo partly drawn) [Compound T33]  0%
3. CCc1sc(-c2ccc(Br)cc2C)nc1C1C(=O)[C@@H]2[C@H](C1=O)[C@H]1CC[C@@H]2O1 (stereo partly drawn) [Compound T35]  0%

tested on: Setaria faberi (SETFA); test: Example B post-emergence herbicidal activity, glasshouse pot test; type: in vivo; conditions: 312 h, rate 250 g/ha, evaluated after 13 days, read-out: Post-emergence activity SETFA (100=total damage to plant; 0=no damage to plant)
Experimental: as §1

In order of rising pest or weed control at 250 g/ha:
1. Cc1sc(-c2cccs2)nc1C1C(=O)[C@@H]2[C@H](C1=O)[C@H]1CC[C@@H]2O1 (stereo partly drawn) [Compound T32]  70%
2. Cc1sc(-c2ccc(I)cc2)nc1C1C(=O)[C@@H]2[C@H](C1=O)[C@H]1CC[C@@H]2O1 (stereo partly drawn) [Compound T33]  100%
3. CCc1sc(-c2ccc(Br)cc2C)nc1C1C(=O)[C@@H]2[C@H](C1=O)[C@H]1CC[C@@H]2O1 (stereo partly drawn) [Compound T35]  100%

tested on: Avena fatua (AVEFA); test: as above; type: in vivo; conditions: 312 h, rate 250 g/ha, evaluated after 13 days, read-out: Post-emergence activity AVEFA (100=total damage to plant; 0=no damage to plant)
Experimental: as §1

In order of falling pest or weed control at 250 g/ha:
1. Cc1sc(-c2ccc(I)cc2)nc1C1C(=O)[C@@H]2[C@H](C1=O)[C@H]1CC[C@@H]2O1 (stereo partly drawn) [Compound T33]  100%
2. CCc1sc(-c2ccc(Br)cc2C)nc1C1C(=O)[C@@H]2[C@H](C1=O)[C@H]1CC[C@@H]2O1 (stereo partly drawn) [Compound T35]  100%
3. Cc1sc(-c2cccs2)nc1C1C(=O)[C@@H]2[C@H](C1=O)[C@H]1CC[C@@H]2O1 (stereo partly drawn) [Compound T32]  0%

tested on: Alopecurus myosuroides (ALOMY); test: as above; type: in vivo; conditions: 312 h, rate 250 g/ha, evaluated after 13 days, read-out: Post-emergence activity ALOMY (100=total damage to plant; 0=no damage to plant)
Experimental: as §1

In order of falling pest or weed control at 250 g/ha:
1. Cc1sc(-c2ccc(I)cc2)nc1C1C(=O)[C@@H]2[C@H](C1=O)[C@H]1CC[C@@H]2O1 (stereo partly drawn) [Compound T33]  100%
2. CCc1sc(-c2ccc(Br)cc2C)nc1C1C(=O)[C@@H]2[C@H](C1=O)[C@H]1CC[C@@H]2O1 (stereo partly drawn) [Compound T35]  100%
3. Cc1sc(-c2cccs2)nc1C1C(=O)[C@@H]2[C@H](C1=O)[C@H]1CC[C@@H]2O1 (stereo partly drawn) [Compound T32]  0%

tested on: Echinochloa crus-galli (ECHCG); test: as above; type: in vivo; conditions: 312 h, rate 250 g/ha, evaluated after 13 days, read-out: Post-emergence activity ECHCG (100=total damage to plant; 0=no damage to plant)
Experimental: as §1

In order of rising pest or weed control at 250 g/ha:
1. Cc1sc(-c2cccs2)nc1C1C(=O)[C@@H]2[C@H](C1=O)[C@H]1CC[C@@H]2O1 (stereo partly drawn) [Compound T32]  30%
2. Cc1sc(-c2ccc(I)cc2)nc1C1C(=O)[C@@H]2[C@H](C1=O)[C@H]1CC[C@@H]2O1 (stereo partly drawn) [Compound T33]  100%
3. CCc1sc(-c2ccc(Br)cc2C)nc1C1C(=O)[C@@H]2[C@H](C1=O)[C@H]1CC[C@@H]2O1 (stereo partly drawn) [Compound T35]  100%

tested on: Amaranthus retoflexus (AMARE); test: as above; type: in vivo; conditions: Amaranthus retroflexus, 312 h, rate 250 g/ha, evaluated after 13 days, read-out: Post-emergence activity AMARE (100=total damage to plant; 0=no damage to plant)
Experimental: as §1

In order of falling pest or weed control at 250 g/ha:
1. Cc1sc(-c2ccc(I)cc2)nc1C1C(=O)[C@@H]2[C@H](C1=O)[C@H]1CC[C@@H]2O1 (stereo partly drawn) [Compound T33]  60%
2. Cc1sc(-c2cccs2)nc1C1C(=O)[C@@H]2[C@H](C1=O)[C@H]1CC[C@@H]2O1 (stereo partly drawn) [Compound T32]  0%
3. CCc1sc(-c2ccc(Br)cc2C)nc1C1C(=O)[C@@H]2[C@H](C1=O)[C@H]1CC[C@@H]2O1 (stereo partly drawn) [Compound T35]  0%
